Source: publication PMC6604316 (Virology Journal, 2019)
Read-outs that look alike come from different tables or passages of the source. Marks after values point to notes of the source that are not given here.

Target: NA of A/Texas/12/2007 (H3N2 119 V) (Influenza A virus (A/Texas/12/2007(H3N2)), UniProt D1FVK3, I119V)
Assay: biochemical
Assay type: biochemical

Compound	Fold change	IC50 (read-out: Mean IC50 (nM) ± SD) [nM]	IC50 [nM]
oseltamivir carboxylate	520.08^c fold	62.4 ± 2.16	–
CC(=O)N[C@H]1[C@H]([C@H](O)[C@H](O)CO)OC(C(=O)O)=C[C@@H]1N=C(N)N [Zanamivir, zanamivir]	–	–	1.56 ± 0.55
